Assay results from US3988476A, “Pharmaceutical compositions and methods of treating allergic conditions utilizing 2-nitroindane-1,3-dione derivatives as the active agent” (Beecham Group Limited, priority 1972, dated 1976).

Test system: PCA response
Assay: Rat Passive Cutaneous Anaphylaxis (PCA) test, ovalbumin challenge
Type: in vivo, Wistar rats
Procedure: All of the 2-nitro indane-1,3-dione prepared in the preceding Examples were submitted for biological testing. The test system was the Rat Passive Cutaneous Anaphylaxis (PCA) test described below in (ii).
Male Wister rats of 250- 300 g, were injected intraperitoneally with 0.5 ml of Bordatella pertussis vaccine (containing 4× 10^10 dead organism per ml) and subcutaneously with 0.5 ml of an emulsion of 100 mg. of ovalbumin in 2 ml of saline and 3 ml of incomplete Freunds' adjuvant. Rats were bled by cardiac puncture on day 18, the blood was pooled and separated and serum stored at -20° and thawed only once before use.
0.1 ml of each of six twofold serial dilutions of the serum in 0.9% saline were injected intradermally into separate sites on the shaved dorsal surface of 250-350 g. Wistar rats. 72 hours later the animals were challenged by i.v. injection of 0.3 ml of 1% ovalbumin mixed with 0.1 ml of a 5% solution of pontamine sky blue dye both in isotonic saline buffered with pH. 7.2 Sorenson buffer (P.B.S.). The rats were killed after 20 minutes and the diameter of the blue wheals at the antibody injection sites were measured. The starting dilution of the serum was adjusted so that there was no response, after challenge, at the site of injection of the highest dilution and a maximum response at the lowest dilution.
Amounts of the compounds were administered to rats each amount to a test group of six animals at a specified time prior to intravenous challenge with ovalbumin.
For those compounds having insoluble sodium salts, the salts were isolated by reaction of the free nitro compound with 2.5N sodium hydroxide and the filtered sodium washed free of alkali with water. The dried salts were then administered as a suspension in 1% methyl cellulose.

[1] = 25 mg/kg, 0 min between dosing and challenge, suspension of Na salt in 1% methyl cellulose
[2] = 25 mg/kg, 60 min between dosing and challenge, suspension of Na salt in 1% methyl cellulose
[3] = 100 mg/kg, 0 min between dosing and challenge, suspension of Na salt in 1% methyl cellulose
[4] = 100 mg/kg, 60 min between dosing and challenge, suspension of Na salt in 1% methyl cellulose
[5] = 25 mg/kg, 0 min between dosing and challenge, solution of Na salt
[6] = 25 mg/kg, 30 min between dosing and challenge, solution of Na salt
[7] = 100 mg/kg, 0 min between dosing and challenge, solution of Na salt
[8] = 100 mg/kg, 30 min between dosing and challenge, solution of Na salt
[9] = 25 mg/kg, 60 min between dosing and challenge, solution of Na salt
[10] = 100 mg/kg, 60 min between dosing and challenge, solution of Na salt

Compound | % INHIBITION OF PCA RESPONSE [1] | % INHIBITION OF PCA RESPONSE [2] | % INHIBITION OF PCA RESPONSE [3] | % INHIBITION OF PCA RESPONSE [4] | % INHIBITION OF PCA RESPONSE [5] | % INHIBITION OF PCA RESPONSE [6] | % INHIBITION OF PCA RESPONSE [7] | % INHIBITION OF PCA RESPONSE [8] | % INHIBITION OF PCA RESPONSE [9] | % INHIBITION OF PCA RESPONSE [10]
O=C1c2ccc3ccccc3c2C(=O)C1[N+](=O)[O-] (stereo not shown) [2-nitrobenz(e) indane-1,3-dione, 2-Nitro benz(e)indane-1,3-dione] | 16% | 50% | 13% | 47% | – | – | – | – | – | –
O=C1c2ccc3c(c2C(=O)C1[N+](=O)[O-])CCC3 (stereo not shown) [4,5-cyclopentano 2-nitroindane 1,3-dione, 4,5-Cyclopentano-2-nitro indane-1,3-dione] | 5% | 34% | 26% | 28% | – | – | – | – | – | –
Cc1cc2c(cc1C)C(=O)C([N+](=O)[O-])C2=O [5,6-dimethyl-2-nitroindane-1,3-dione, 5,6-Dimethyl-2-nitro-indane-1,3-dione] | 92% | 48% | 73% | 54% | – | – | – | – | – | –
O=C1c2cccc(F)c2C(=O)C1[N+](=O)[O-] (stereo not shown) [4-fluoro-2-nitroindane-1,3-dione, 4-Fluoro-2-nitro indane-1,3-dione] | – | – | – | – | 48% | 8% | 86% | 30% | – | –
COc1cc(C)cc2c1C(=O)C([N+](=O)[O-])C2=O (stereo not shown) [4-Methoxy-6-methyl-2-nitro indane-1,3-dione] | – | – | – | – | 34% | 31% | 80% | 24% | – | –
O=C1c2c(Cl)c(Cl)c(Cl)c(Cl)c2C(=O)C1[N+](=O)[O-] [2-Nitro-4,5,6,7-tetrachloro indane-1,3-dione] | – | – | – | – | -13% | – | -3% | – | 9% | 7%
CCOc1cccc2c1C(=O)C([N+](=O)[O-])C2=O (stereo not shown) [4-ethoxy-2-nitroindane-1,3-dione, 4-Ethoxy-2-nitro indane-1,3-dione] | – | – | – | – | 13% | 68% | 76% | 55% | – | –
CCCOc1cccc2c1C(=O)C([N+](=O)[O-])C2=O (stereo not shown) [4-n-propyloxy 2-nitroindane 1,3-dione, 2-Nitro-4-n-Propyloxy indane-1,3-dione] | – | – | – | – | 77% | 37% | 30% | 37% | – | –
CCc1cc(OC)c2c(c1)C(=O)C([N+](=O)[O-])C2=O (stereo not shown) [6-Ethyl-4-methoxy-2-nitro indane-1,3-dione] | – | – | – | – | 66% | 37% | 91% | 32% | – | –
CC(C)COc1cccc2c1C(=O)C([N+](=O)[O-])C2=O (stereo not shown) [4-isobutyloxy-2-nitroindane 1,3-dione, 4-Isobutyloxy-2-nitro indane-1,3-dione] | – | – | – | – | 61% | 28% | 78% | 41% | – | –
O=C1c2cc3ccccc3cc2C(=O)C1[N+](=O)[O-] [2-nitro-benz[f] indane 1,3-dione, 2-Nitro benz[f] indane-1,3-dione] | 100% | 37% | 100% | 72% | – | – | – | – | – | –
O=C1c2ccc(Br)cc2C(=O)C1[N+](=O)[O-] (stereo not shown) [5-bromo-2-nitroindane-1,3-dione, 5-Bromo-2-nitro indane-1,3-dione] | – | – | – | – | 46% | – | 30% | – | 87% | 64%
COc1cccc2c1C(=O)C([N+](=O)[O-])C2=O (stereo not shown) [4-methoxy-2-nitroindane-1,3-dione, 4-Methoxy-2-nitro indane-1,3-dione] | -2% | 25% | 18% | 36% | – | – | – | – | – | –
